# Assay results reported in paper PMC3964607 (Nuclear medicine and biology, 2013).
# Tests used:
# [1] = Sprague-Dawley rats; cited from earlier work
# [2] = rats; cited from earlier work
# [3] = Biodistribution in normal rats; type: in vivo, rats (Sprague–Dawley); details: mean ± SD; for Percent injected dose in blood: i.v. tail vein
# [4] = Biodistribution in rats with renal pedicle ligation; type: in vivo, rats (Sprague–Dawley)
# [5] = rats with renal pedicle ligation, 60 min post-injection, mean ± SD, n=5
compound,measurement,setting,value
^125I-iothamalate,Clearance as percentage of the clearance of ^131I-OIH,[1],40%
"N#Cc1cc(C(=O)NCC(=O)O)ccc1[18F] [^18F-CNPFH, ^18F-m-cyano-p-fluorohippurate]",Route of elimination,[2],eliminated by both renal and hepatobiliary pathways
"O=C(O)CNC(=O)c1ccccc1[131I] [^131I-OIH, ^131I-o-iodohippurate]",Percent injected dose in blood,"[3]; 10 min post-injection, n=7",5.1 ± 0.5 % ID
same,Percent injected dose in bowel (intestines and stomach),"[3]; 10 min post-injection, n=7",1.7 ± 0.5 % ID
same,Percent injected dose in kidney,"[3]; 10 min post-injection, n=7",5.3 ± 1.2 % ID
same,Percent injected dose in liver,"[3]; 10 min post-injection, n=7",3.3 ± 0.2 % ID
same,Percent injected dose in urine,"[3]; 10 min post-injection, n=7",50.8 ± 5.2 % ID
same,Percent injected dose in blood,"[3]; 60 min post-injection, n=5",0.8 ± 0.1 % ID
same,Percent injected dose in bowel (intestines and stomach),"[3]; 60 min post-injection, n=5",1.8 ± 0.3 % ID
same,Percent injected dose in kidney,"[3]; 60 min post-injection, n=5",0.7 ± 0.4 % ID
same,Percent injected dose in liver,"[3]; 60 min post-injection, n=5",0.6 ± 0.2 % ID
same,Percent injected dose in urine,"[3]; 60 min post-injection, n=5",85.4 ± 3.1 % ID
same,"Percent injected dose remaining in the spleen, heart and lung","[4]; rats with ligated renal pedicles, 60 min",less than 1%
same,Percent injected dose in blood,[4]; [5],15.1 ± 0.9 % ID
same,Percent injected dose in bowel (intestines and stomach),[4]; [5],7.6 ± 1.1 % ID
same,Percent injected dose in kidney,[4]; [5],0.5 ± 0.2 % ID
same,Percent injected dose in liver,[4]; [5],7.1 ± 0.6 % ID
"O=C(O)CNC(=O)c1ccc([18F])cc1 [^18F-PFH, ^18F-p-fluorohippurate]",Route of elimination,[2],rapidly and exclusively cleared by the kidneys
